Some test systems named below: MDA-MB-231 breast; MDA-MB-435; T-47D breast; DLD-1 colon; XF 498 CNS; DMS 114 small cell lung; MDA-N.
Assay in all cases: NCI tumour cell line growth inhibition, 48 h

Data on 27 molecules can be found in PubChem BioAssay (NCI).

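In this assay, cells in 96-well plates receive the compound at five concentrations for 48 hours. Endpoints are linearly interpolated between the surrounding concentrations. GI50 marks 50% less growth. Definition used: TGI = concentration required for complete inhibition of growth.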

Turning to `COc1cc([N+](=O)[O-])c2ncccc2c1[N+](=O)[O-]`, the results for the GI50 in the assay on MDA-MB-231 breast, with MDA-MB-435 and with T-47D breast were 11.6 µM, 3.9 µM and 3.1 µM, respectively. Further, the TGI was found to be 24.8 µM in the assay on MDA-MB-231 breast, 15.1 µM in the assay with MDA-MB-435 and 11.7 µM with T-47D breast.
`Cc1c(C(=O)CSc2nc3ccccc3[nH]2)c(=O)n(-c2ccccc2)n1C`: the TGI with DLD-1 colon and with XF 498 CNS was > 100 µM each time.
Take `CC1=NN(C(=O)c2ccccc2O)C(=O)/C1=C/c1cccc([N+](=O)[O-])c1`: the TGI was > 100 µM in the assay on DLD-1 colon; 21.4 µM in the assay on DMS 114 small cell lung; > 100 µM with MDA-MB-231 breast; > 100 µM in the assay on MDA-MB-435; > 100 µM in the assay on MDA-N; > 100 µM in the assay with T-47D breast.
In the case of `N=C1C=C(N)C(=O)c2[nH]c(=O)ccc21`, the TGI was 3.46 µM with MDA-MB-231 breast, 2.3 µM with MDA-MB-435, 2.28 µM with MDA-N and 4.88 µM with T-47D breast.
For the molecule `Nc1[nH]c(=O)ncc1CO`, the GI50 with MDA-MB-231 breast, in the assay with MDA-MB-435 and in the assay with T-47D breast was > 100 µM each time. For the same molecule, the TGI in the assay on MDA-MB-231 breast, in the assay on MDA-MB-435 and in the assay on T-47D breast was > 100 µM each time.
In the case of `COc1ccc(C(O)CC(O)(C(F)(F)F)C(F)(F)F)cc1` (stereo not given), the TGI in the assay on MDA-MB-231 breast, with MDA-MB-435, in the assay with MDA-N and in the assay with T-47D breast was > 100 µM in each case.
Take `COC(OC)c1cc2c(cc1C(=O)[C@@]13CCC[C@@H]1NC(=O)O3)OCO2`: the TGI with DLD-1 colon, in the assay with DMS 114 small cell lung and in the assay on XF 498 CNS was > 100 µM in each case.
With `Cc1nc(N)nc2ccccc12`, the TGI in the assay on MDA-MB-231 breast, with MDA-MB-435, in the assay with MDA-N and in the assay with T-47D breast was > 100 µM each time.
`CC(NC(=O)c1ccccc1)(C(=O)O)C(=O)O`: the TGI in the assay on MDA-MB-231 breast, in the assay with MDA-MB-435, in the assay with MDA-N and with T-47D breast was > 100 µM each time.
On to `C=[CH][Sn]([CH]=C)([O]c1cccc2cccnc12)[O]c1cccc2cccnc12`, for which the results for the GI50 in the assay with MDA-MB-231 breast and with MDA-MB-435 were 11.9 µM and 7.86 µM, respectively. Moreover, the TGI in the assay with MDA-MB-231 breast is 36.9 µM; in the assay on MDA-MB-435, 40.8 µM.
For `CC(=O)Oc1ccc(/C=N/NC(N)=S)nc1`, the GI50 was 11.2 µM with MDA-MB-231 breast, 5.14 µM in the assay with MDA-MB-435 and 5.39 µM in the assay on T-47D breast. The TGI in the assay on MDA-MB-231 breast, in the assay with MDA-MB-435 and with T-47D breast was > 100 µM throughout.
As to `Cc1nc(-n2nc(-c3ccccc3)cc2-c2ccccc2)sc1C(/C=C/c1ccc([N+](=O)[O-])cc1)=N/NC(=O)c1ccncc1`, the TGI in the assay with DLD-1 colon was 33.2 µM; with DMS 114 small cell lung, 58.5 µM.
With `CC1CCC2N(C1)CC1C3(O)CC45OC6(O)C(O)CCC4(C)C6CCC5C3(O)CC(O)C1(O)C2(C)O` (stereo not given), the TGI in the assay with MDA-MB-231 breast, with MDA-MB-435, with MDA-N and in the assay on T-47D breast was > 100 µM in each case.
With `O=c1c2ccccc2oc2ccc(OCCCCCCN3CCCCCC3)cc12`, the GI50 in the assay on MDA-MB-231 breast was 4.19 µM; in the assay on MDA-MB-435, 2.53 µM; in the assay on T-47D breast it was 2.26 µM. Also, the TGI with MDA-MB-231 breast is 13 µM; with MDA-MB-435 it was 8.75 µM; in the assay with T-47D breast, 8.52 µM.
With `O=C1C=CC2(C=C1)C[C@H](NC(=O)C(F)(F)F)C(=O)O2`, the values for the TGI in the assay on DLD-1 colon and with DMS 114 small cell lung were 53.1 µM and > 100 µM, respectively.
For the molecule `CCOc1cc(-c2ccc[nH]2)[nH]c1/C=C1\N=C(C)C(C(=O)OC)=C1C`, the GI50 with MDA-MB-231 breast is 0.0171 µM; in the assay on MDA-MB-435 it was 0.0325 µM; with T-47D breast, 0.0311 µM. In addition, the TGI in the assay on MDA-MB-231 breast worked out at 0.279 µM; with MDA-MB-435, 1.05 µM; with T-47D breast, 0.367 µM.
On to `CCN(CC)CCN(C(=O)C(C)(C)C)c1ccccc1N`, for which the TGI in the assay on MDA-N is > 100 µM.
As for `COc1cnc2cc(C(=O)O)c3ccccc3c2c1`, the TGI in the assay with MDA-MB-231 breast, with MDA-MB-435, with MDA-N and in the assay on T-47D breast was > 100 µM in each case.
In the case of `CC1(C)CC[C@]2(C(N)=O)CC[C@]3(C)C(=CC[C@@H]4[C@@]5(C)C/C(=C/c6ccncc6)C(=O)C(C)(C)[C@@H]5CC[C@]43C)[C@@H]2C1`, the figures for the GI50 with MDA-MB-231 breast and with T-47D breast were 1.86 µM and 2.55 µM, respectively. Further, the TGI in the assay on MDA-MB-231 breast came to 4.15 µM; in the assay on T-47D breast, 12.4 µM.
Turning to `COC1(OC)c2no[n+]([O-])c2C(OC)(OC)c2c1no[n+]2[O-]`, the TGI in the assay on MDA-MB-231 breast is 32.9 µM; in the assay on MDA-MB-435, 36.2 µM; in the assay with MDA-N, 62.8 µM; in the assay with T-47D breast, > 100 µM.
`CCC1CNC(=O)CC1CC(=O)OC` (stereo not given): the TGI in the assay with DMS 114 small cell lung is > 100 µM.
For `CC1OC(OC2CCC3(C=O)C4CCC5(C)C(C6=CC(=O)OC6)CCC5(O)C4CCC3(O)C2)C(O)C(O)C1O` (stereo not given), the TGI stood at 0.0025 µM in the assay with MDA-MB-231 breast, 7.77e-05 µM in the assay on MDA-MB-435 and 7.94e-05 µM in the assay with MDA-N.
For `Oc1ccc(Cl)cc1Cc1cc(Cl)ccc1O`, the GI50 in the assay with MDA-MB-231 breast was 1.65 µM; in the assay on MDA-MB-435, 2.76 µM; in the assay on T-47D breast it was 2.18 µM. Further, the TGI in the assay on MDA-MB-231 breast was 5.01 µM; in the assay on MDA-MB-435 it was 8.44 µM; with T-47D breast it was 7.3 µM.
Consider `O=c1[nH]c2ccccc2n1-c1n[nH]c2ccccc12`, for which the GI50 with MDA-MB-231 breast is 22.9 µM; in the assay on MDA-MB-435 it was 23.7 µM; in the assay on T-47D breast, 29.5 µM. The TGI in the assay with MDA-MB-231 breast is > 100 µM; with MDA-MB-435, 57.4 µM; in the assay with T-47D breast it was 98.2 µM.
In the case of `CCCCCCCCCCCCOP(N)(=O)OCCCCCCCCCCCC`, the TGI with DLD-1 colon and in the assay with DMS 114 small cell lung was > 100 µM each time.
For `COc1cccc(C2NC(=S)NC(C)=C2C(=O)Nc2ccc(Cl)c(Cl)c2)c1` (stereo not given), the GI50 was 9.41 µM in the assay on MDA-MB-231 breast, 8.22 µM in the assay with MDA-MB-435 and 14.4 µM with T-47D breast. The TGI with MDA-MB-231 breast is 19.6 µM; with MDA-MB-435, 16.8 µM; with T-47D breast, > 50 µM.
`C/C=C1\C(=O)OC2CCN3CCC(COC(=O)C(C)(O)C(C)C1O)C23` (stereo not given): the TGI with MDA-MB-231 breast, in the assay with MDA-MB-435, in the assay with MDA-N and with T-47D breast was > 100 µM throughout.
